From PubChem BioAssay AID977606 (Broad Institute, 2014)
Where “and” joins values, the source holds several entries; their conditions need not be identical. Equal entries are not always repeated. Calls of active or inactive are those of the source. How the calls were made is not given here.

Tested on: INS-1E Gaussia luciferase insulin secretion, no glucose, luminescence
Test: insulin secretion activators without glucose, dose response, counter-screen for glucose-dependent insulin secretion activators, cell-based, INS-1E, Gaussia luciferase, luminescence, cherry-pick (AID 977606)

Row | SMILES | AC40
1 | COc1cc(NC(=O)c2cccc(C)c2)ccc1NC(=O)c1cc2ccccc2o1 | 2.21 µM
2 | CC(=O)Nc1cc(-c2cccc(C(=O)NCCN(C)C)c2)cn2c(-c3cccc(C(F)(F)F)c3)cnc12 | 8.13 µM
3 | NC1=NC[C@H](c2ccccc2)N1CCCCC1CCCCC1 | 17.4 µM
4 | COc1ccc(CNCC(O)COc2ccc(C(C)(C)c3ccccc3)cc2)cc1 (stereo not given) | 6.24 µM
5 | OC1(C#Cc2c(-c3ccsc3)sc3ccccc23)CCCCC1 | 13.3 µM
6 | NC(=O)c1ccc2nc(-c3ccccc3)c(-c3ccccc3)nc2c1 | 19.8 µM
7 | CC(C)(C(=O)N1CCC1(C)C(=O)NS(=O)(=O)c1cccc(Cl)c1)c1ccccc1 (stereo not given) | 3.65 µM
8 | CCC(=O)Nc1sc(Cc2ccc3c(c2)OCO3)c(C)c1C(N)=O | 7.01 µM
9 | CCCCCCCCN1C(=O)[C@@H](CC(=O)N2CCN(C(=O)c3ccco3)CC2)C[C@@]2(C(=O)OC)C1=C[C@H](C1CCCC1)O[C@@H]2C | 9.46 µM
10 | Cc1cccc(-c2ccc(C3[C@@H]4CN(Cc5cccc(F)c5)C[C@H]3N4)cc2)c1 (stereo not given in full) | 4.33 µM and 2.3 µM
11 | O=c1c2ccc(Cl)cc2[nH]c(=S)n1CCC1=CCCCC1 | 2.15 µM
12 | Cc1ccc(OCC(=O)NC(=S)Nc2cccc(NC(=O)c3ccccc3)c2)cc1 | 8.85 µM
13 | CC(C)COc1ccc(Br)cc1CNC(C)(C)C | > 35 µM (inactive)
14 | Fc1ccc(-c2ccc(C3[C@@H]4CN(Cc5cccc(F)c5)C[C@H]3N4)cc2)cc1 (stereo not given in full) | 5.18 µM
15 | Clc1ccc(/C=N/NC2=Nc3cccc4cccc2c34)cc1 | 2.88 µM
16 | Cc1cc(C)nc(NS(=O)(=O)c2ccc(N/C=C/C(=O)c3ccc(Cl)c(Cl)c3)cc2)n1 | 4.44 µM
17 | NC(c1csc(NC(=O)Nc2cccc(C(F)(F)F)c2)n1)C1CCCCC1 (stereo not given) | 6.68 µM
18 | Fc1ccc(-c2ccc(C3[C@@H]4CN(Cc5ccccc5)C[C@H]3N4)cc2)cc1 (stereo not given in full) | 8.97 µM
19 | COc1cc(CNCCc2ccccc2)cc(Cl)c1OCc1ccccc1 | 7.96 µM
20 | CC1(C(=O)NS(=O)(=O)c2ccc(Cl)s2)CCN1C(=O)C1(c2ccccc2)CCCC1 (stereo not given) | 9.9 µM
21 | O=C(Nc1cccnc1)/C(N=Nc1cccnc1)=C(\O)c1ccccc1 | > 35 µM (inactive)
22 | COCCn1c(=NC(=O)c2cc(Cl)sc2Cl)sc2cc(S(N)(=O)=O)ccc21 | 6.07 µM
23 | O=C(N/N=C/c1ccc(Cl)cc1Cl)Nc1ccccc1 | 7.4 µM
24 | NC(N)=N/N=C/c1ccc(N(c2ccccc2)c2ccccc2)cc1 | 4.06 µM
25 | c1ccc(Oc2ccccc2-c2cc(NCCc3cccnc3)n3nccc3n2)cc1 | 13.1 µM
26 | COc1ccc(NC(=O)c2sc3nc(N4CCOCC4)c4c(c3c2N)CC(C)(C)OC4)c(OC)c1 | 6.06 µM
27 | C/C(=N\NC(=O)c1cccc(Br)c1)c1ccc(Br)cc1 | 13 µM

Row | SMILES | AC40
28 | CCCc1nc2ccccc2c(=O)n1CC(=O)c1ccc(OC)cc1 | 5.72 µM
29 | Cc1cc(NC(=O)c2ccccc2F)n(-c2nc3ccccc3[nH]2)n1 | 4.6 µM
30 | CCc1c(C)sc(NC(=O)c2cc(-c3ccc(OC)c(OC)c3)on2)c1C#N | 6.43 µM
31 | COC(=O)C1=C(C)N(Cc2cccc(C(F)(F)F)c2)C(=NCc2ccc(C(F)(F)F)cc2)NC1c1ccccc1 (stereo not given) | 8.93 µM
32 | CS(=O)(=O)N1CCN(c2ccc(NC(=O)c3ccc(-c4ccc(Cl)cc4)o3)cc2)CC1 | 9.12 µM
33 | CCN=C1NC(c2ccc(C(F)(F)F)cc2)C(C(=O)OC)=C(C)N1Cc1cccc(C(F)(F)F)c1 (stereo not given) | 3.88 µM
34 | CCOc1ccc2nc(NCCNC(=O)Nc3ccccc3)c(C#N)cc2c1 | 8.22 µM
35 | Cc1cc(S(=O)(=O)Nc2nc(CN3CCOCC3)nc3sc4c(c23)CCC4)ccc1F | > 35 µM (inactive)
36 | CCOc1ccccc1CNC(c1ccccc1)c1ccccc1 | 2.21 µM
37 | CC(C)n1nc(C(=O)Nc2ccccc2N2CCOCC2)c2ccccc2c1=O | 6.12 µM
38 | CCc1nc2ccc(C(=O)NCCCN3CCCC3=O)cn2c1N(CCC(C)C)CCN(C)C | > 35 µM (inactive)
39 | NC(CCc1ccccc1)c1csc(Nc2ccc(C(F)(F)F)cn2)n1 (stereo not given) | 6.01 µM
40 | C[C@@H]1CN([C@@H](C)CO)C(=O)c2cc(Br)cnc2O[C@H]1CN(C)C(=O)C1CC1 | > 35 µM (inactive)
41 | Cc1ccccc1C(=O)Nc1nnc(-c2ccc(C(C)(C)C)cc2)s1 | 4.97 µM
42 | NC[C@H](Cc1ccccc1)NCCc1cc(C(F)(F)F)cc(C(F)(F)F)c1 | 9.24 µM
43 | CC(C)CC#Cc1ccc2c(c1)O[C@@H](CN(C)Cc1ccc(F)cc1)[C@H](C)CN([C@H](C)CO)S2(=O)=O | 9.44 µM
44 | CCOc1ccc(/C=N/NC(=O)c2cc(-c3ccco3)nc3ccccc23)cc1 | 6.73 µM
45 | O=C(c1ccc(F)cc1)N1C[C@@H]2N[C@H](C1)C2c1ccc(/C=C/c2ccccc2)cc1 (stereo not given in full) | > 11 µM (inactive)
46 | CC(NCC(O)COCCC12CC3CC(CC(C3)C1)C2)c1ccccc1 (stereo not given) | 8.21 µM
47 | CCCN1Cc2cccc(C(=O)NCc3ccccc3)c2C1=O | > 35 µM (inactive)
48 | O=C(N/N=C/c1ccco1)c1cc(-c2ccc3ccccc3c2)n[nH]1 | 3.97 µM
49 | CCSc1ccc2nnc(-c3ccc(F)cc3)n2n1 | 17.9 µM
50 | COC(=O)C1=C(C)N(Cc2cccc(C(F)(F)F)c2)C(=NCc2ccc(OC)cc2)NC1c1cccc(F)c1 (stereo not given) | 3.75 µM
51 | COc1ccc(CC(N)c2csc(NC(=O)Nc3ccc(C(C)C)cc3)n2)cc1 (stereo not given) | 3.58 µM
52 | COc1ccc(S(=O)(=O)Nc2ccccc2OC)cc1N=Nc1c(O)[nH]c(=S)[nH]c1=O | 12.6 µM
53 | Cc1ccc(NC(=O)c2cc(-c3ccccc3O)n[nH]2)cc1C | > 35 µM (inactive)
54 | O=C(Nc1ccc(C(F)(F)F)cc1)N1C[C@@H]2N[C@H](C1)C2c1ccc(-c2ccccc2)cc1 (stereo not given in full) | 8.46 µM

Row | SMILES | AC40
55 | O=C(NCC1OCCc2ccccc21)c1ccc(NC(=O)c2cccc(Br)c2)cc1 (stereo not given) | 11.1 µM
56 | Cc1ccc(S(=O)(=O)C=CS(=O)(=O)c2ccc(C)cc2)cc1 | 0.228 µM
57 | COC(=O)c1cnn(-c2nc(-c3ccccc3)cs2)c1N | 20.4 µM
58 | CCOC(=O)c1c(NC(=O)c2ccoc2C)sc(C(=O)N(C)C)c1C | > 35 µM (inactive)
59 | CCn1c(O)c(/C=N/N=C/c2ccc(OC)cc2)c2cc(C3=NNC(=O)CC3)ccc21 | 4.2 µM
60 | COc1ccccc1C(=O)NC(=S)NC12CC3CC(CC(C3)C1)C2 | 7.67 µM
61 | O=C(CCN1CCOCC1)c1ccc2c(c1)OCCO2 | 33.2 µM
62 | COc1ccc(-c2ccc3c(N)c(C(=O)c4ccc(OC)c(OC)c4)sc3n2)cc1 | 6.27 µM
63 | CCSc1nnc(NC(=O)c2csc3c2CCCC3)s1 | 5.49 µM
64 | CCOc1cc(/C=N/NC(=O)CCn2nc(C)cc2C)ccc1O | 21.9 µM
65 | CC(C)(c1ccccc1)c1ccc(OCC(O)CNC2CCN(Cc3ccccc3)CC2)cc1 (stereo not given) | 5.4 µM
66 | CCOC(=O)c1c(C)n(-c2ccc(C)cc2)c2ccc(OCC(O)CN3CCN(C)CC3)cc12 (stereo not given) | 17.2 µM
67 | COc1ccc(C2=NN(C(C)=O)C(c3cccs3)C2)cc1OC (stereo not given) | > 35 µM (inactive)
68 | Cc1ccc(C)c(C(=O)Nc2nc3ccccc3[nH]2)c1 | 4.67 µM
69 | NS(=O)(=O)c1ccc(N=Cc2c(O)n(C3CCCCC3)c(=O)n(C3CCCCC3)c2=O)cc1 | 15.1 µM
70 | Cc1[nH]c2ccc(OC(F)(F)F)cc2c1CCNCc1ccc(Cl)cc1 | 5.89 µM
71 | CC(=O)Nc1sc(N/N=C\c2cccc(Cl)c2)nc1-c1cccs1 | 4.69 µM
72 | CC(=O)Nc1ccc(Nc2nc(-c3c(C)nc4ccccn34)cs2)cc1 | 4.46 µM
73 | Cc1nc2ccccc2c2oc(C(=O)N3CCCC(C)C3)cc12 (stereo not given) | 16 µM
74 | COc1ccc(-c2ccc(C3[C@@H]4CN(Cc5cccc(OC)c5)C[C@H]3N4)cc2)cc1 (stereo not given in full) | 6.42 µM
75 | Cc1ccc(NC(=O)c2oc3ccc(S(=O)(=O)N4CCOCC4)cc3c2C)cc1C | 7.57 µM
76 | CCS(=O)(=O)Nc1ccc(-c2cc(-c3ccccc3)c3cc(C)ccc3n2)cc1 | 17.5 µM
77 | CCN1CCN(Cc2ccc(NC(=O)c3cccc(-c4ccc5nc(NC(=O)C6CC6)sc5n4)c3)cc2C(F)(F)F)CC1 | 12 µM
78 | O=C(COc1ccc2c(c1)OCO2)Nc1ccc2c(c1)oc1ccccc12 | 12.2 µM
79 | O=C(N/N=C\c1ccc(CNS(=O)(=O)c2ccc(Cl)cc2)o1)C(=O)Nc1ccc(Oc2ccccc2)cc1 | 1.8 µM
80 | Cc1ccc2c(Cl)c(C)c(N3CCCCC3)nc2n1 | 9.65 µM
81 | COc1ccnc(N2CCN(c3cccc(C(F)(F)F)c3)CC2)c1C#N | 10.1 µM

Row | SMILES | AC40
82 | CCOc1ccc2ccc(OCC)c(/C=N/n3cnnc3)c2c1 | 34.8 µM
83 | CCCCCCCOC(=O)c1nc(Cl)c(Cl)c(N)c1Cl | 8.89 µM
84 | CCOc1ncccc1C(=O)NC(C)CCc1ccccc1 (stereo not given) | 16.2 µM
85 | CCCCCc1cc(=O)oc2c(C(CCN3CCCC(C)C3)c3ccc(OC)cc3)c(OC)cc(OC)c12 (stereo not given) | 8.58 µM
86 | N#Cc1cccc(Oc2ccc(-c3cnc4ccccc4n3)cc2)c1C#N | 9.37 µM
87 | Cc1ccc(C(OCC(O)CNCc2ccc(F)cc2)c2ccccc2)cc1 (stereo not given) | 8.22 µM
88 | Cc1ccc(-n2nc3ccc(NC(=O)c4ccco4)cc3n2)cc1 | 8.86 µM
89 | CCOC(=O)c1cnc2c(Cl)c(Cl)ccc2c1NCCN1CCOCC1 | 26.5 µM
90 | COc1ccc(C(=O)Nc2ccc3c(c2)C(=O)c2ccccc2C3=O)cc1OC | > 35 µM (inactive)
91 | COc1cccc(-c2sc3ccccc3c2-c2ccc(OCCN(C)C)cc2)c1 | 2.75 µM
92 | COc1ccc(Br)cc1C(=O)Nc1cccc(C)c1 | 9.88 µM
93 | COc1ccc(C#Cc2ccc([C@@H]3[C@@H](CO)N4CCCCN(Cc5ccccc5F)C[C@@H]34)cc2)cc1 | 11.1 µM
94 | COC(=O)c1sccc1NC(=O)COc1ccc(Cl)cc1Cl | 6.02 µM
95 | CCCCCCC1CCC(C(=O)Nn2c(C)nc3ccccc3c2=O)CC1 (stereo not given) | 14.8 µM
96 | O=C(NC(=S)Nc1ccc(NC(=O)c2cccs2)cc1)c1cc2ccccc2o1 | 10.9 µM
97 | COc1cccc(CN2C[C@@H]3N[C@H](C2)C3c2ccc(-c3ccccc3OC)cc2)c1 (stereo not given in full) | 7.67 µM
98 | COC(=O)C1=C(C)N(C)C(=NCc2cccc(C(F)(F)F)c2)NC1c1ccc(C(F)(F)F)cc1 (stereo not given) | 4.7 µM
99 | CC(C)CC#Cc1ccc([C@H]2[C@H]3CN(C(=O)c4cnccn4)CC(=O)N3[C@H]2CO)cc1 | > 35 µM (inactive)
100 | OC(c1ccccc1)(c1ccccc1)C1CCN(CCCOc2cccc(OC(F)(F)F)c2)CC1 | 3.95 µM
101 | Cc1cccc(Cn2ccc(-c3ccc(Cl)cc3)c(C#N)c2=O)c1 | 3.46 µM
102 | CCOC(=O)c1[nH]c2cc(OC)c(OC)cc2c1NC(=O)c1ccc2c(c1)OCO2 | 15.6 µM
103 | COC(=O)c1ccc2c(=O)[nH]c(CSc3nc(-c4ccc(F)cc4)cs3)nc2c1 | 4.39 µM
104 | NC(N)=N/N=C/c1ccc(OCc2ccccc2Cl)cc1 | 12.3 µM
105 | COc1ccc(CC2c3cc(OC)c(OC)cc3CCN2C)cc1O (stereo not given) | 14.7 µM
